According to paper PMC3857490, “Discovery of a metabolic alternative to the classical mevalonate pathway” (eLife, 2013):
Values belong to the molecule of their own block, whether it stands above or below them.

Columns and labels:
Test in all cases: pyruvate kinase-lactate dehydrogenase coupled assay
PMK from S. solfataricus = molecular target: T1, PMK from S. solfataricus (Saccharolobus solfataricus, UniProt Q97UL6); format: biochemical; conditions: co-substrate ATP; Ki from the fit of the substrate's own saturation curve (substrate inhibition); racemic (RS)-MVAP
T1 construct: gene SSO2988; full length, N-terminal thrombin-cleavable 8-His tag (pET28a), E. coli BL21(DE3)
T1 sequence (Q97UL6 1-323): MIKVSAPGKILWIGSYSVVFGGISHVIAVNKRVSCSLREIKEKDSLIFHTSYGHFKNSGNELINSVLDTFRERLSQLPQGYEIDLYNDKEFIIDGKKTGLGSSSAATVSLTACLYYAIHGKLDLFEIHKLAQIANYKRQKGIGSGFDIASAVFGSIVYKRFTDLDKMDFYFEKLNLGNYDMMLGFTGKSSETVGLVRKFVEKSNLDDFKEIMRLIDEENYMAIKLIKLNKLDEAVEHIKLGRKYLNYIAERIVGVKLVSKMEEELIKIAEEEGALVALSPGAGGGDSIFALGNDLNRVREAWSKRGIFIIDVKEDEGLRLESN
Text: (§1) pyruvate kinase-lactate dehydrogenase coupled assay on PMK from S. solfataricus

MDD from A. thaliana = molecular target: T2, MDD from A. thaliana (Arabidopsis thaliana, UniProt O23722); format: biochemical; conditions: co-substrate ATP; racemic (RS)-MVAPP
T2 construct: gene MVD1; synthetic gene, thrombin-cleavable 9-His tag (pHIS9GW), E. coli BL21(DE3)
T2 sequence (O23722 1-412): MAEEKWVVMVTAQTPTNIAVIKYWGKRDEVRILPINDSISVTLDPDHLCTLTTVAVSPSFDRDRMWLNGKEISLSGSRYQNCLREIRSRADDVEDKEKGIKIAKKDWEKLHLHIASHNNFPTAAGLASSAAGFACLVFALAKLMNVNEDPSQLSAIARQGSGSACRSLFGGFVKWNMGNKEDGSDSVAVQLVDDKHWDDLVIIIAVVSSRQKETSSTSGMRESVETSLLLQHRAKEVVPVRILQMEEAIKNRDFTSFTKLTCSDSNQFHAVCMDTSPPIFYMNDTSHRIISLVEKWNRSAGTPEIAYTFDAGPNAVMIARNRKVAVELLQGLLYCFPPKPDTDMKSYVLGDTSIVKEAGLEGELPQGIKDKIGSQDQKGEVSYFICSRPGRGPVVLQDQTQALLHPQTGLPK
Text: pyruvate kinase-lactate dehydrogenase coupled assay on MDD from A. thaliana

IPK from A. thaliana = molecular target: T3, IPK from A. thaliana (Arabidopsis thaliana, UniProt Q8H1F7); format: biochemical; conditions: co-substrate ATP; Ki from the fit of the substrate's own saturation curve (substrate inhibition); four IP concentrations, 2-100 µM
T3 construct: synthetic gene, thrombin-cleavable 9-His tag (pHIS9GW), E. coli BL21(DE3)
T3 sequence (Q8H1F7 1-332): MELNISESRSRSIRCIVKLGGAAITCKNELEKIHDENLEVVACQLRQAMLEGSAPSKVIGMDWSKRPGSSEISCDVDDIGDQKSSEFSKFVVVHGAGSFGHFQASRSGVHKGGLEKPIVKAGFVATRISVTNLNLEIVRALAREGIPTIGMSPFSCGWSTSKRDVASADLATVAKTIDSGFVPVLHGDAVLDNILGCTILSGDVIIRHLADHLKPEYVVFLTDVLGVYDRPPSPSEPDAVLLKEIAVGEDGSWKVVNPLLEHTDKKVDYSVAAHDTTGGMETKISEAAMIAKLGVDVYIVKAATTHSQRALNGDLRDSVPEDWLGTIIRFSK

IPK from T. adhaerens = molecular target: T4, IPK from T. adhaerens (Trichoplax adhaerens, UniProt B3RKZ8); format: biochemical; conditions: co-substrate ATP; four IP concentrations, 2-100 µM
T4 construct: gene TRIADDRAFT_51825
T4 sequence (B3RKZ8 1-281): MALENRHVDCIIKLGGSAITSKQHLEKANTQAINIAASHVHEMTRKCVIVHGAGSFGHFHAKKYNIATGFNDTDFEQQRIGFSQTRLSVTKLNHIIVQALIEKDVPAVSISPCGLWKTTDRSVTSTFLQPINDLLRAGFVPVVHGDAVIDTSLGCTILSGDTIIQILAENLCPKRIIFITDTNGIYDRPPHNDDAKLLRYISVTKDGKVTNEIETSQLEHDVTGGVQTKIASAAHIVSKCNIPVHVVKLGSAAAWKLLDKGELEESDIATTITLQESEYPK

IPK from B. floridae [1] = molecular target: T5, IPK from B. floridae (Branchiostoma floridae, UniProt A0A9J7KY69); format: biochemical; conditions: co-substrate ATP; Ki from the fit of the substrate's own saturation curve (substrate inhibition)
T5 construct: gene LOC118413305
T5 sequence (A0A9J7KY69 1-298): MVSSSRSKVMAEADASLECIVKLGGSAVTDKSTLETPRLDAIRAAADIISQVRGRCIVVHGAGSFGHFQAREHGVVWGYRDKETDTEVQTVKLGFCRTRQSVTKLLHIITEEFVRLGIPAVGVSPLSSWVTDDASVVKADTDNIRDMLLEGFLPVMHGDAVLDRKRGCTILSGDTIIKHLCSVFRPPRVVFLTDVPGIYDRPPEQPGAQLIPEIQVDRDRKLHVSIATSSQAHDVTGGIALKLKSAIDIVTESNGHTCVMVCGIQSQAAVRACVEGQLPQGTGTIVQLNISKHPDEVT
Text: pyruvate kinase-lactate dehydrogenase coupled assay on IPK from B. floridae

IPK from B. floridae [2] = molecular target: T5, IPK from B. floridae; format: biochemical; conditions: co-substrate ATP; fit with substrate inhibition
[3] = substrate: CC(O)(CCOP(=O)(O)O)CC(=O)O; format: biochemical, Roseiflexus castenholzii; conditions: co-substrate ATP, racemic (RS)-MVAP, below the organism's growth temperature (50 C and above)
Text: pyruvate kinase-lactate dehydrogenase coupled assay on MPD from R. castenholzii (annotated MDD)

[4] = substrate: CC(O)(CCOP(=O)(O)O)CC(=O)O; format: biochemical, Saccharolobus solfataricus; conditions: co-substrate ATP; racemic (RS)-MVAP; fit with substrate inhibition
Text: as §1

B1: MPD from R. castenholzii (annotated MDD) (Roseiflexus castenholzii DSM 13941) (protein)
chain: MYHRPLERMPGLATAIPAPYADLVERMATADADLRAALRAHGLTWEEYPDLTGAARERGAAAALAYPMQGVLKYHGLSDWDYRIAFLPSVSLCNDAGHTLTLVEFDPDLATDCATINGHVARGRELERVRQSLDAIRAASGATVRARVMSRNVTRGTRMGKGLGSSAAASAALALAAIAALYGDEAAANRRLVSCMARLLAGSGCRSAAGGCSIWFSSPGMPHEDSFAVRLDDAGQLDDVRLITVPLDSRIGLKTEQAHLDAPGSALFRCWMLSRRDEALACIAAARTGDWRTLGQWAELDSMRLHGITMSGSLENKLIGWEPENIVLFRMCNDLRSSGVPVYCSTDTGPTAVFITHRDYEDAVVSAIEGLGLSLEAIRGRVAGPARLVDIAWAGGELGVAD
notes: synthetic gene, 9-His tag removed with thrombin, E. coli BL21(DE3), Mono Q and Superdex 200
Km [3]: 152 (± 38) μM
kcat [3]: 1.7 ± 0.1 s⁻¹
kcat/Km [3]: 11000 ± 3000 M⁻¹ s⁻¹

B2: PMK from S. solfataricus (Saccharolobus solfataricus P2) (protein)
chain: MIKVSAPGKILWIGSYSVVFGGISHVIAVNKRVSCSLREIKEKDSLIFHTSYGHFKNSGNELINSVLDTFRERLSQLPQGYEIDLYNDKEFIIDGKKTGLGSSSAATVSLTACLYYAIHGKLDLFEIHKLAQIANYKRQKGIGSGFDIASAVFGSIVYKRFTDLDKMDFYFEKLNLGNYDMMLGFTGKSSETVGLVRKFVEKSNLDDFKEIMRLIDEENYMAIKLIKLNKLDEAVEHIKLGRKYLNYIAERIVGVKLVSKMEEELIKIAEEEGALVALSPGAGGGDSIFALGNDLNRVREAWSKRGIFIIDVKEDEGLRLESN
notes: full length, N-terminal thrombin-cleavable 8-His tag (pET28a), E. coli BL21(DE3)
Km [4]: 23.1 (± 3.8) μM
kcat [4]: 1.98 ± 0.1 s⁻¹
kcat/Km [4]: 90000 ± 10000 M⁻¹ s⁻¹

Second part, the molecule after the results:

Ki (μM) (PMK from S. solfataricus): 5500 (± 2200) μM
Molecule: CC(O)(CCOP(=O)(O)O)CC(=O)O (racemic) [compound 3, phosphomevalonate]

Km (MDD from A. thaliana): 15.7 µM
Molecule: CC(O)(CCOP(=O)(O)OP(=O)(O)O)CC(=O)O (racemic) [compound 5, diphosphomevalonate]

Ki (μM) (IPK from A. thaliana): 522 (± 381) μM
Km (IPK from T. adhaerens): 3.1 µM
Ki (μM) (IPK from B. floridae [1]): 2820 (± 1700) μM
Km (IPK from B. floridae [2]): 13.3 µM
Molecule: C=C(C)CCOP(=O)(O)O [compound 4, isopentenyl phosphate]
